This series deals with CCRIS mutagenicity, Ames/micronucleus/aberration tests. Put plainly: CCRIS mutagenicity studies.
Setting [1] is: Test System: AMES SALMONELLA TYPHIMURIUM, Strain/Indicator: TA98, Metabolic Activation: NONE, Method: PREINCUBATION
Setting [2] is: Test System: AMES SALMONELLA TYPHIMURIUM, Strain/Indicator: TA98, Metabolic Activation: NONE, Method: STANDARD PLATE.
[3] abbreviates: Test System: AMES SALMONELLA TYPHIMURIUM, Strain/Indicator: TA98, Metabolic Activation: RAT, LIVER, S-9, AROCLOR 1254, Method: PREINCUBATION
Setting [4] is: Test System: AMES SALMONELLA TYPHIMURIUM, Strain/Indicator: TA98, Metabolic Activation: RAT, LIVER, S-9, AROCLOR 1254, Method: STANDARD PLATE.
Setting [5] is: Test System: AMES SALMONELLA TYPHIMURIUM, Strain/Indicator: TA100, Metabolic Activation: NONE, Method: PREINCUBATION
Setting [6] is: Test System: AMES SALMONELLA TYPHIMURIUM, Strain/Indicator: TA100, Metabolic Activation: NONE, Method: STANDARD PLATE.
The mark [7] stands for this setting: Test System: AMES SALMONELLA TYPHIMURIUM, Strain/Indicator: TA100, Metabolic Activation: RAT, LIVER, S-9, AROCLOR 1254, Method: PREINCUBATION
[8] abbreviates: Test System: AMES SALMONELLA TYPHIMURIUM, Strain/Indicator: TA100, Metabolic Activation: RAT, LIVER, S-9, AROCLOR 1254, Method: STANDARD PLATE.

Active and inactive are the calls of the source. The rule behind the calls is not given here.

With `O=[N+]([O-])c1cc2c3c(ccc2c2ccccc12)[C@H](O)[C@@H](O)C=C3`, the mutagenic call was “active; positive” under setting [1]; “inactive; negative” under setting [2]; “inactive; negative” under setting [3]; “active; positive” under setting [4]; “active; positive” under setting [5]; “active; positive” under setting [6]. In addition, the mutagenic call was “active; positive” under setting [7]; “active; positive” under setting [8]; “inactive; negative” (Test System: CHINESE HAMSTER OVARY, Strain/Indicator: CHO-K1-BH4 (HGPRT)/6-THIOGUANINE, Metabolic Activation: NONE, Method: STANDARD PLATE); “active; positive” (Test System: CHINESE HAMSTER OVARY, Strain/Indicator: CHO-K1-BH4 (HGPRT)/6-THIOGUANINE, Metabolic Activation: RAT, LIVER, S-9, AROCLOR 1254, Method: STANDARD PLATE); “inactive; negative” (Test System: CHINESE HAMSTER OVARY, Strain/Indicator: CHO-UV5 (HGPRT)/6-THIOGUANINE, Metabolic Activation: NONE, Method: STANDARD PLATE); “active; positive” (Test System: CHINESE HAMSTER OVARY, Strain/Indicator: CHO-UV5 (HGPRT)/6-THIOGUANINE, Metabolic Activation: RAT, LIVER, S-9, AROCLOR 1254, Method: STANDARD PLATE).

For `C1COCCOCCOCCOCCO1`, the mutagenic call is, setting by setting: under setting [2], “inactive; negative”; under setting [4], “inactive; negative”; under setting [6], “inactive; negative”; under setting [8], “inactive; negative”; (Test System: AMES SALMONELLA TYPHIMURIUM, Strain/Indicator: TA1530, Metabolic Activation: NONE, Method: STANDARD PLATE) “inactive; negative”; (Test System: AMES SALMONELLA TYPHIMURIUM, Strain/Indicator: TA1530, Metabolic Activation: RAT, LIVER, S-9, AROCLOR 1254, Method: STANDARD PLATE) “inactive; negative”. For the same molecule, the mutagenic call (Test System: AMES SALMONELLA TYPHIMURIUM, Strain/Indicator: TA1537, Metabolic Activation: NONE, Method: STANDARD PLATE) was “inactive; negative” and the mutagenic call (Test System: AMES SALMONELLA TYPHIMURIUM, Strain/Indicator: TA1537, Metabolic Activation: RAT, LIVER, S-9, AROCLOR 1254, Method: STANDARD PLATE) was “inactive; negative”.

Consider `Oc1ccc(Cl)c(Cl)c1`, for which the mutagenic call was “inactive; negative” (Test System: AMES SALMONELLA TYPHIMURIUM, Strain/Indicator: TA98, Metabolic Activation: HAMSTER, LIVER, S-9, AROCLOR 1254, Method: PREINCUBATION); “inactive; negative” under setting [1]; “inactive; negative” under setting [3]; “inactive; negative” (Test System: AMES SALMONELLA TYPHIMURIUM, Strain/Indicator: TA100, Metabolic Activation: HAMSTER, LIVER, S-9, AROCLOR 1254, Method: PREINCUBATION); “inactive; negative” under setting [5]; “inactive; negative” under setting [7]. The mutagenic call was “inactive; negative” (Test System: AMES SALMONELLA TYPHIMURIUM, Strain/Indicator: TA1535, Metabolic Activation: HAMSTER, LIVER, S-9, AROCLOR 1254, Method: PREINCUBATION); “inactive; negative” (Test System: AMES SALMONELLA TYPHIMURIUM, Strain/Indicator: TA1535, Metabolic Activation: NONE, Method: PREINCUBATION); “inactive; negative” (Test System: AMES SALMONELLA TYPHIMURIUM, Strain/Indicator: TA1535, Metabolic Activation: RAT, LIVER, S-9, AROCLOR 1254, Method: PREINCUBATION); “inactive; negative” (Test System: AMES SALMONELLA TYPHIMURIUM, Strain/Indicator: TA1537, Metabolic Activation: HAMSTER, LIVER, S-9, AROCLOR 1254, Method: PREINCUBATION); “inactive; negative” (Test System: AMES SALMONELLA TYPHIMURIUM, Strain/Indicator: TA1537, Metabolic Activation: NONE, Method: PREINCUBATION); “inactive; negative” (Test System: AMES SALMONELLA TYPHIMURIUM, Strain/Indicator: TA1537, Metabolic Activation: RAT, LIVER, S-9, AROCLOR 1254, Method: PREINCUBATION).

The values above are taken from PubChem BioAssay AID1259407 (Chemical Carcinogenesis Research Information System (CCRIS), 2018).
